{"source": "patent US12139481B2", "about": "“Compositions comprising macrocycle derivatives incorporating bridged macrocycles and methods of producing and using same” (Southwestern Oklahoma State University, priority 2015, dated 2024)", "assay_type_in_all_cases": "cell-based", "key": {"[1]": {"system": "Staphylococcus aureus ATCC 29213", "assay": "Antibacterial broth dilution assay against S. aureus (modified CLSI)", "details": "for S. aureus IC50 / IC50: in vitro; for IC50: converted with molecular weight; for X more potent than ciprofloxacen: molar IC50 ratio versus ciprofloxacen", "in_short": "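Modified CLSI broth microdilution with OD monitoring before and after incubation at 35 °C: Candida in RPMI 1640/MOPS pH 6.0, 1.5×10^3 CFU/ml, 46-50 h; Staphylococcus in cation-adjusted Mueller-Hinton pH 7.3, 5.0×10^5 CFU/ml, 16-20 h. IC50 from curve fit; MIC is the lowest concentration with no growth; MFC/MBC from subculture.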"}, "[2]": {"system": "Plasmodium falciparum D6 clone (Sierra Leon, chloroquine-sensitive)", "assay": "In vitro antimalarial assay, chloroquine-sensitive D6 clone", "details": "D6 clone; for IC50: converted with molecular weight, read-out: P. falciparum D6 IC50; for X more potent than chloroquine: molar IC50 ratio versus chloroquine", "in_short": "(§1)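 Parasites grown in type A human RBCs; assay run on infected cell suspension at 2% parasitemia and 2% hematocrit, in duplicate at several concentrations. IC50 taken from dose curves, per the Makler method, with DMSO as vehicle; Vero cytotoxicity run in parallel to derive a selectivity index.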"}, "[3]": {"system": "Cryptococcus neoformans ATCC 90113", "assay": "Antimicrobial microdilution assay against Cryptococcus neoformans (modified CLSI/NCCLS, optical density)", "details": "for X more potent than Amphotericin B: C. neoformans, ratio of molar IC50 to Amphotericin B; for C. neoformans IC50 / IC50: in vitro, C. neoformans ATCC 90113; for IC50: read-out: C. neoformans IC50 (mol/L)", "in_short": "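Broth microdilution (modified CLSI) in RPMI pH 6.0, samples serially diluted in 20% DMSO/saline and tested in duplicate, growth followed by OD630 before and after incubation. MFC is the lowest concentration giving no growth when 5 μL from clear wells is plated on agar.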"}, "[4]": {"system": "Plasmodium falciparum W2 clone (Indochina, chloroquine-resistant)", "assay": "In vitro antimalarial assay, chloroquine-resistant W2 clone", "details": "W2 clone; for IC50: converted with molecular weight, read-out: P. falciparum W2 IC50; for X more potent than chloroquine: molar IC50 ratio versus chloroquine", "in_short": "as §1"}}, "note": "Like-named read-outs stand apart in the source and are kept apart here."}
{"smiles": "c1cc(CN2CCCN3CCCN(CCCNCC3)CC2)ccc1CN1CCCN2CCCN(CCCNCC2)CC1", "note": "[SLK10, p-H2PBCyclams]", "values": [{"measurement": "S. aureus IC50", "setting": "[1]", "value": 1.410, "unit": "µg/mL"}, {"measurement": "IC50", "setting": "[1]", "value": 2.42, "unit": "µM"}, {"measurement": "X more potent than ciprofloxacen", "setting": "[1]", "value": 0.11}, {"measurement": "P. falciparum D6 IC50", "setting": "[2]", "value": 0.8657, "unit": "µg/mL"}, {"measurement": "IC50", "setting": "[2]", "value": 1480, "unit": "nM"}, {"measurement": "X more potent than chloroquine", "setting": "[2]", "value": 0.02}, {"measurement": "X more potent than Amphotericin B", "setting": "[3]", "value": 0.01}, {"measurement": "C. neoformans IC50", "setting": "[3]", "value": 15.010, "unit": "µg/mL"}, {"measurement": "IC50", "setting": "[3]", "value": 25.8, "unit": "µM"}, {"measurement": "P. falciparum W2 IC50", "setting": "[4]", "value": 1.7920, "unit": "µg/mL"}, {"measurement": "IC50", "setting": "[4]", "value": 3070, "unit": "nM"}, {"measurement": "X more potent than chloroquine", "setting": "[4]", "value": 0.22}]}
{"smiles": "[Cl][Mn-2]([Cl])([Cl])[Cl].[Mn+2].c1ccc(CN2CCCN3CCCN(CCCN(Cc4ccccc4)CC3)CC2)cc1", "note": "[BME08, [Mn(Bn2PBCyclam)][MnCl4]]", "values": [{"measurement": "S. aureus IC50", "setting": "[1]", "value": 0.800, "unit": "µg/mL"}, {"measurement": "IC50", "setting": "[1]", "value": 1.19, "unit": "µM"}, {"measurement": "X more potent than ciprofloxacen", "setting": "[1]", "value": 0.23}, {"measurement": "P. falciparum D6 IC50", "setting": "[2]", "value": 0.0967, "unit": "µg/mL"}, {"measurement": "IC50", "setting": "[2]", "value": 144, "unit": "nM"}, {"measurement": "X more potent than chloroquine", "setting": "[2]", "value": 0.25}, {"measurement": "X more potent than Amphotericin B", "setting": "[3]", "value": 0.13}, {"measurement": "C. neoformans IC50", "setting": "[3]", "value": 1.203, "unit": "µg/mL"}, {"measurement": "IC50", "setting": "[3]", "value": 1.79, "unit": "µM"}, {"measurement": "P. falciparum W2 IC50", "setting": "[4]", "value": 0.1206, "unit": "µg/mL"}, {"measurement": "IC50", "setting": "[4]", "value": 179, "unit": "nM"}, {"measurement": "X more potent than chloroquine", "setting": "[4]", "value": 3.78}]}
{"smiles": "CC(=O)[O-].F[P-](F)(F)(F)(F)F.[Ni+2].c1ccc(CN2CCCN3CCCN(CCCN(Cc4ccccc4)CC3)CC2)cc1", "note": "[DJD22, [Ni(Bn2PBCyclam)(OAc)]PF6]", "values": [{"measurement": "S. aureus IC50", "setting": "[1]", "value": 4.630, "unit": "µg/mL"}, {"measurement": "IC50", "setting": "[1]", "value": 6.78, "unit": "µM"}, {"measurement": "X more potent than ciprofloxacen", "setting": "[1]", "value": 0.04}, {"measurement": "P. falciparum D6 IC50", "setting": "[2]", "value": 0.7074, "unit": "µg/mL"}, {"measurement": "IC50", "setting": "[2]", "value": 1040, "unit": "nM"}, {"measurement": "X more potent than chloroquine", "setting": "[2]", "value": 0.04}, {"measurement": "X more potent than Amphotericin B", "setting": "[3]", "value": 0.03}, {"measurement": "C. neoformans IC50", "setting": "[3]", "value": 5.240, "unit": "µg/mL"}, {"measurement": "IC50", "setting": "[3]", "value": 7.67, "unit": "µM"}, {"measurement": "P. falciparum W2 IC50", "setting": "[4]", "value": 0.9060, "unit": "µg/mL"}, {"measurement": "IC50", "setting": "[4]", "value": 1330, "unit": "nM"}, {"measurement": "X more potent than chloroquine", "setting": "[4]", "value": 0.51}]}
{"smiles": "c1ccc(CN2CCN3CCCN(CC2)CCN(Cc2ccccc2)CC3)cc1", "note": "[AW009, Bn2PBCyclen]", "values": [{"measurement": "S. aureus IC50", "setting": "[1]", "value": 2.010, "unit": "µg/mL"}, {"measurement": "IC50", "setting": "[1]", "value": 5.12, "unit": "µM"}, {"measurement": "X more potent than ciprofloxacen", "setting": "[1]", "value": 0.05}, {"measurement": "P. falciparum D6 IC50", "setting": "[2]", "value": 1.0770, "unit": "µg/mL"}, {"measurement": "IC50", "setting": "[2]", "value": 2740, "unit": "nM"}, {"measurement": "X more potent than chloroquine", "setting": "[2]", "value": 0.01}, {"measurement": "X more potent than Amphotericin B", "setting": "[3]", "value": 0.01}, {"measurement": "C. neoformans IC50", "setting": "[3]", "value": 6.740, "unit": "µg/mL"}, {"measurement": "IC50", "setting": "[3]", "value": 17.2, "unit": "µM"}, {"measurement": "P. falciparum W2 IC50", "setting": "[4]", "value": 1.5560, "unit": "µg/mL"}, {"measurement": "IC50", "setting": "[4]", "value": 3960, "unit": "nM"}, {"measurement": "X more potent than chloroquine", "setting": "[4]", "value": 0.17}]}
{"smiles": "CN1CCCN2CCN(CCCN(Cc3cccc(CN4CCCN5CCN(C)CCCN(CC5)CC4)c3)CC2)CC1.Cl.Cl.Cl.Cl.Cl.Cl.Cl.Cl", "note": "[TJS04, m-CB-cyclams HCl salt]", "values": [{"measurement": "S. aureus IC50", "setting": "[1]", "value": 9.280, "unit": "µg/mL"}, {"measurement": "IC50", "setting": "[1]; HCl salt", "value": 9.53, "unit": "µM"}, {"measurement": "X more potent than ciprofloxacen", "setting": "[1]", "value": 0.03}, {"measurement": "P. falciparum D6 IC50", "setting": "[2]", "value": 0.7450, "unit": "µg/mL"}, {"measurement": "IC50", "setting": "[2]", "value": 852, "unit": "nM"}, {"measurement": "X more potent than chloroquine", "setting": "[2]", "value": 0.04}, {"measurement": "X more potent than Amphotericin B", "setting": "[3]", "value": 0.61}, {"measurement": "C. neoformans IC50", "setting": "[3]", "value": 0.380, "unit": "µg/mL"}, {"measurement": "IC50", "setting": "[3]; HCl salt", "value": 0.39, "unit": "µM"}, {"measurement": "P. falciparum W2 IC50", "setting": "[4]", "value": 0.6558, "unit": "µg/mL"}, {"measurement": "IC50", "setting": "[4]", "value": 750, "unit": "nM"}, {"measurement": "X more potent than chloroquine", "setting": "[4]", "value": 0.90}]}
